Data as given in patent publication US20160009674A1, “PROTOTYPICAL BRAIN PROTECTIVE ACTIVITY OF TETRAHYDRO-N-METHYL-2,2-DIPHENYL-3-FURANOMETHANAMINE (AE37MET)” (priority 2013, published 2016).
“Also recorded” adds a separate entry of the source.

Columns and labels:
[1] = biological target: N-methyl-D-aspartate (NMDA) receptors; test: NMDA receptor affinity; type: binding
[2] = test system: NMDA (10 μM) induced functional excitotoxicity, hippocampal slices; test: NMDA (10 μM) induced functional excitotoxicity in rat hippocampal slices; settings: for neuroprotection against NMDA induced functional excitotoxicity: hippocampal slices
sigma-1 [3] = biological target: T1, sigma-1 (Homo sapiens, UniProt Q99720); test: sigma-1 agonistic activity
brain ischemia = brain ischemia in mice; type: in vivo; settings: for neuroprotection against mice brain ischemia: dose not given
hippocampal slices = test: in vitro evaluation of the compounds' own functional excitotoxicity on hippocampal slices
immobility = test: forced swimming (Porsolt) test in mice; type: in vivo; settings: from 5 mg/kg po
M3 muscarinic receptors [4] = biological target: M3 muscarinic receptors (Homo sapiens, UniProt P20309); test: M3 muscarinic receptor affinity; type: binding
[5] = test system: M2 and M3 muscarinic receptors in the periphery; test: antagonism of peripheral M2 and M3 muscarinic receptors in mice; type: in vivo; settings: from 1 to 10 mg/kg ip
[6] = test system: mitochondrial toxicity of pentylenetetrazole (PTZ); test: latency of lethality of pentylenetetrazole (PTZ) in mice; type: in vivo; settings: PTZ 130 mg/kg ip
sigma-1 [7] = biological target: T1, sigma-1; test: sigma-1 receptor affinity (binding)
[8] = memory perturbations in mice; settings: 0.1 to 45 mg/kg, per os
M2 muscarinic receptors [9] = biological target: T2, M2 muscarinic receptors (Cavia porcellus, UniProt H0VRN8); test: functional M2 antagonism, guinea pig left atria
T2 construct: from tissue; host or cells: guinea pig left atria
T2 sequence (H0VRN8 1-466): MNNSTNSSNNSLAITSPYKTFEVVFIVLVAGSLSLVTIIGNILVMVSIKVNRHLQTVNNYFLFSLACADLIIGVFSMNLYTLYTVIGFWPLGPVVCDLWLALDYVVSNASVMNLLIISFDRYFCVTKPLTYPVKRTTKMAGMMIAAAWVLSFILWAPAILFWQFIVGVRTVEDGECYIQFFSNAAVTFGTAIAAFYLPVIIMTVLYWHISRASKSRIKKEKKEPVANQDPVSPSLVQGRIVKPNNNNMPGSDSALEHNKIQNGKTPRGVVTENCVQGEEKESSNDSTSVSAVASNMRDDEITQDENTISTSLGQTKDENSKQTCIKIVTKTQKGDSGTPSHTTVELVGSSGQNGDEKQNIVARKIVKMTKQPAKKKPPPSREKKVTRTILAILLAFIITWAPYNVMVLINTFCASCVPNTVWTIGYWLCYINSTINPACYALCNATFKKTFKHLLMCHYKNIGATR

PTZ convulsions = test: Pentylenetetrazole (PTZ) convulsions in mice; type: in vivo; settings: 10 to 30 mg/kg po
[10] = test system: Aβ25-35 induced amnesia and neurotoxicity; test: Aβ25-35 induced amnesia and neurotoxicity in mice (Y-maze, step-through); type: in vivo
M3 muscarinic receptors [11] = biological target: T3, M3 muscarinic receptors (Cavia porcellus, UniProt H0W1Z3); test: functional M3 antagonism, guinea pig ileum
T3 construct: from tissue; host or cells: guinea pig ileum

sodium channels = test: sodium channel affinity; type: binding
M2 muscarinic receptors [12] = biological target: T4, M2 muscarinic receptors (Homo sapiens, UniProt P08172); test: M2 muscarinic receptor affinity; type: binding
T4 sequence (P08172 1-466): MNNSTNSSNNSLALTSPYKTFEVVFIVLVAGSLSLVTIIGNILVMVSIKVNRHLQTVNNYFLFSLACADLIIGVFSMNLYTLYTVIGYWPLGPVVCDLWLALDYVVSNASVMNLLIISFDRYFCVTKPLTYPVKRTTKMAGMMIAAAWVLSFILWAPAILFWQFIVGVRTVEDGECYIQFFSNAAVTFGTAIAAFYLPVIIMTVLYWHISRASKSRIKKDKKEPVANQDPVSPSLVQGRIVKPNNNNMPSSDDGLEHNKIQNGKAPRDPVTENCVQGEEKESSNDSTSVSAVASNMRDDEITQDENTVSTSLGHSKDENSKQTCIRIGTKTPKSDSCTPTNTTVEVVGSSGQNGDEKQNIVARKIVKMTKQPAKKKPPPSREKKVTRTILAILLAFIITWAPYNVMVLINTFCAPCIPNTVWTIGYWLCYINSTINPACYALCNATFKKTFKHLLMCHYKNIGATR

MES convulsions = test: Maximal Electrochoc Seizures (MES) in mice; type: in vivo; settings: 10 to 30 mg/kg po
sigma-2 receptors = sigma-2 receptors (Homo sapiens, UniProt Q5BJF2); test: sigma-2 receptor affinity (binding)
sigma-2 receptors, sequence (Q5BJF2 whole entry): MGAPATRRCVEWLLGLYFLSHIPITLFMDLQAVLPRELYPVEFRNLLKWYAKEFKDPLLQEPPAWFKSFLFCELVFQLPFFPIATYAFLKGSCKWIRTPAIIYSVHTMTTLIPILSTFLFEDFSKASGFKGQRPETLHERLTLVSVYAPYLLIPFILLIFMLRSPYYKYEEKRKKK

T1 sequence (Q99720 whole entry): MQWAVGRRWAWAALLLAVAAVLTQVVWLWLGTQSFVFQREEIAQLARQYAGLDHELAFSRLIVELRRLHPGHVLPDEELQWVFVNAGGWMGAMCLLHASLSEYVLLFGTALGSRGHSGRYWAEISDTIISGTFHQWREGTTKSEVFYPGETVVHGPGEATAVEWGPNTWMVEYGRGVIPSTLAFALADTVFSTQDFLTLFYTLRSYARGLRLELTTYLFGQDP
M3 muscarinic receptors (Homo sapiens, UniProt P20309), sequence (P20309 whole entry): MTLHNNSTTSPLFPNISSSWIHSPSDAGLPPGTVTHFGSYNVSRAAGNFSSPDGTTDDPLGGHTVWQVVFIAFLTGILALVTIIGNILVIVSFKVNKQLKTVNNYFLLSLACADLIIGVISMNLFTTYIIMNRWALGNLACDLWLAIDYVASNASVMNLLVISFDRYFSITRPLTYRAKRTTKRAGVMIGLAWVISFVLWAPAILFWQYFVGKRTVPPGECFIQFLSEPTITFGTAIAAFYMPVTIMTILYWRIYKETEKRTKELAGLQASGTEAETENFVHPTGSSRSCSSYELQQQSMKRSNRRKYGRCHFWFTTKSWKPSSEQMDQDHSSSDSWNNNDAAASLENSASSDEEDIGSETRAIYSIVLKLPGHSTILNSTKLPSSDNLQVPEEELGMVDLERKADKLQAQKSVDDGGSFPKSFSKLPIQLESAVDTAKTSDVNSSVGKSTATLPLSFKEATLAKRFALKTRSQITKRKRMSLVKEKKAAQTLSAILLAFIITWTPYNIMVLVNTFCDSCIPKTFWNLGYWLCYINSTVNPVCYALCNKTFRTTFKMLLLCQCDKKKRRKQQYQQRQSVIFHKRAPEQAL
T3 sequence (H0W1Z3 1-590): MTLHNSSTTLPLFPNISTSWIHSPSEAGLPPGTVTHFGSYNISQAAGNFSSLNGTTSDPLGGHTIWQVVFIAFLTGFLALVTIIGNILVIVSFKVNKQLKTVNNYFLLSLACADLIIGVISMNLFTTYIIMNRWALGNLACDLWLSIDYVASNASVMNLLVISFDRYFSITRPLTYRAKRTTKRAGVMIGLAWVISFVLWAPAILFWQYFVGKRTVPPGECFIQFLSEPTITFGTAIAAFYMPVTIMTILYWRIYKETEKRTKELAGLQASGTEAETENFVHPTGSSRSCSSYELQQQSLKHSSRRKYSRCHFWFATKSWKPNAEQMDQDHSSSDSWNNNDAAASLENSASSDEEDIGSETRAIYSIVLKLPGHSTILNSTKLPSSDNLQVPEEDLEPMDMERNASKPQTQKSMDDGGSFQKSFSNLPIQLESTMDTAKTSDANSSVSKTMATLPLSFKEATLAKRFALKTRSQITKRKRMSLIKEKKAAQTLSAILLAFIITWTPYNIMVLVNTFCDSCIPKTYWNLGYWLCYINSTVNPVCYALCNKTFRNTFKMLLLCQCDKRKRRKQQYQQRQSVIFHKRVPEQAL

For CN(C)CC1COC(c2ccccc2)(c2ccccc2)C1 (stereo not shown) [AE14, tetrahydro-N,N-dimethyl-5,5-diphenyl-3-furanomethanamine], the IC50 [1] was > 10 µM, the “neuroprotection against NMDA induced functional excitotoxicity” value [2] was “no significant neuroprotection” and the sigma-1 agonistic activity (sigma-1 [3]) was “high and selective sigma-1 agonistic activity”. For the same compound, the “neuroprotection against mice brain ischemia” value (brain ischemia) was “inactive” and the “excitotoxic effects of the compound itself (functional excitotoxicity)” value (“excitotoxic effects” below) (hippocampal slices) was “significant excitoneurotoxic effects”.

With CN(C)CC1CCOC1(c1ccccc1)c1ccccc1 (stereo not shown) [AE37, tetrahydro-N,N-dimethyl-2,2-diphenyl-3-furanomethanamine] the IC50 [1] was 8 µM, the “neuroprotection against NMDA induced functional excitotoxicity” value [2] was “no significant neuroprotection” and the sigma-1 agonistic activity (sigma-1 [3]) was “sub-micromolar and selective sigma-1 agonism”. The “neuroprotection against mice brain ischemia” value (brain ischemia) was “inactive” and the “excitotoxic effects” value (hippocampal slices) was “significant excitoneurotoxic effects”.

For CNCC1CCOC1(c1ccccc1)c1ccccc1 (stereo not shown) [AE37Met, tetrahydro-N-methyl-2,2-diphenyl-3-furanomethanamine], the “anti-immobility activity in the Porsolt test” value (immobility) was “high anti-immobility activity”, the IC50 [1] was 1 µM and the IC50 (M3 muscarinic receptors [4]) was 4.35 µM. The “antagonistic effects on M2 and M3 muscarinic receptors in the periphery” value [5] was “antagonistic effects”, the “increase of latency of lethality of PTZ” value ([6]; AE37Met 3.10 mg/kg po (so in the source)) was 3.10 fold and the “increase of latency of lethality of PTZ” value ([6]; AE37Met 30 mg/kg po) was 18 fold. For the same compound, the IC50 (sigma-1 [7]) was 670 nM, the memory perturbations [8] was “no memory perturbations” and the “concentration from which significant functional antagonism (M2)” value (M2 muscarinic receptors [9]) was ≥ 3.0 µM. For the same compound, the “protection against PTZ convulsions” value (PTZ convulsions) was “protected; also recorded: high protective effects”, the “antagonism of Aβ25-35 induced amnesia and neurotoxicity” value ([10]; 0.3 to 3 mg/kg ip, mice) was “antagonized” and the “antiamnesic action on co-administration with IAChEases” value ([10]; co-administered with Rivastigmine or Donepezil, Y-maze, step-through, intracerebral soluble amyloid 25-35, mice) was “higher than the sum of the antiamnesic effects”. For the same compound, the “antagonistic effects against NMDA induced functional excitotoxicity” value ([2]; AE37Met 1 to 10 μM, rat hippocampal slices) was “first antagonistic effects”, the “neuroprotection against NMDA induced functional excitotoxicity” value [2] was “high dose (concentration)-dependant neuroprotection” and the “concentration from which significant functional antagonism (M3)” value (M3 muscarinic receptors [11]) was ≥ 3.0 µM. The IC50 (sodium channels) was 5.7 µM, the IC50 (M2 muscarinic receptors [12]) was 2770 nM and the “protection against MES convulsions” value (MES convulsions) was “protected; also recorded: high protective effects”. The IC50 (sigma-2 receptors) was > 10 µM, the “protection against brain ischemia” value (brain ischemia; 5 to 15 mg/kg ip) was “protected; also recorded: significant antagonism” and the “excitotoxic effects” value (hippocampal slices) was “no excitotoxic effects”.
